From patent publication US12161722B2, “Bifunctional heterocyclic compound having BTK degradation function via ubiquitin proteasome pathway, and use thereof” (KOREA RESEARCH INSTITUTE OF CHEMICAL TECHNOLOGY, priority 2021, dated 2024) come the findings set out here.

The test addresses T1, WT BTK protein (Homo sapiens, UniProt Q06187).
T1 construct: measured for intracellular BTK protein levels by Western blotting; endogenous in cells; host or cells: TMD-8 or RAMOS cells
Put plainly: BTK protein degradation assay (Western blotting), WT BTK. To be noted: concentration range accounting for 50% degradation of WT BTK protein, TMD-8 or RAMOS cells, 24 hours. It counts as cell-based. The essentials:
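TMD-8 cells (1×10^6 cells/mL) treated 24 h with compound serial dilutions, then lysed in RIPA. Equal protein loads analysed by Western blot for BTK with GAPDH/β-actin as loading controls; activity binned by concentration giving 50% WT BTK degradation.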

T1 sequence (Q06187 whole entry): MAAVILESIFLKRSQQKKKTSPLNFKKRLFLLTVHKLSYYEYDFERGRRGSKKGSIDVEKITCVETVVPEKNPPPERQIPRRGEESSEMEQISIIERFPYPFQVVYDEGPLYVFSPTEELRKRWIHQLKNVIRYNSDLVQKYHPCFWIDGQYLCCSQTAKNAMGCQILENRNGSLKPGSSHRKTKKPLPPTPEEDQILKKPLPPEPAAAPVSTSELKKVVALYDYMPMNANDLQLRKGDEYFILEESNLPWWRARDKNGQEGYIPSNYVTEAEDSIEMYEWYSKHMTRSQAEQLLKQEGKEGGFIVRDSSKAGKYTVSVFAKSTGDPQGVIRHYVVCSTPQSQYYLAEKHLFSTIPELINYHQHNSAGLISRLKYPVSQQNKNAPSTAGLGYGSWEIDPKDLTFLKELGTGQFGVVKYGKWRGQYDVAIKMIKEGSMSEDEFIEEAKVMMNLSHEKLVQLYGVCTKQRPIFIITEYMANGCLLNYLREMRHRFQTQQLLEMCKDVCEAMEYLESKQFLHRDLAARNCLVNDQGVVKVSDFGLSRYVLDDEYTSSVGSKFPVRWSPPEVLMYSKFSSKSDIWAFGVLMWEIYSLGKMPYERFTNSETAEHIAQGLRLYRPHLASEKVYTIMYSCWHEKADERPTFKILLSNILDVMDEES

`Cc1cccc(C)c1Nc1nn(C)c2nc(Nc3ccc(CCNC(=O)C4CCN(c5ccc6c(c5)C(=O)N(C5CCC(=O)NC5=O)C6=O)CC4)cc3)ncc12` (stereo not shown) [Compound 100, N-(4-((3-((2,6-dimethylphenyl)amino)-1-methyl-1H-pyrazolo[3,4-d]pyrimidin-6-yl)amino)phenethyl)-1-(2-(2,6-dioxopiperidin-3-yl)-1,3-dioxoisoindolin-5-yl)piperidine-4-carboxamide]: the DC50 lay in the range of 0.1 to 10 nM. Next, `Cc1cccc(C)c1Nc1nn(C)c2nc(Nc3ccc(CCNC(=O)C4CCN(CC(=O)Nc5ccc6c(c5)C(=O)N(C5CCC(=O)NC5=O)C6=O)CC4)cc3)ncc12` (stereo not shown) [Compound 101, N-(4-((3-((2,6-dimethylphenyl)amino)-1-methyl-1H-pyrazolo[3,4-d]pyrimidin-6-yl)amino)phenethyl)-1-(2-((2-(2,6-dioxopiperidin-3-yl)-1,3-dioxoisoindolin-5-yl)amino)-2-oxoethyl)piperidine-4-carboxamide]: 10 to 1000 nM; `Cc1cccc(C)c1Nc1nn(C)c2nc(Nc3ccc(CCNC(=O)C4CCN(C(=O)Nc5ccc6c(c5)CN(C5CCC(=O)NC5=O)C6=O)CC4)cc3)ncc12` (stereo not shown) [Compound 102, N4-(4-((3-((2,6-Dimethylphenyl)amino)-1-methyl-1H-pyrazolo[3,4-d]pyrimidin-6-yl)amino)phenethyl)-N1-(2-(2,6-dioxopiperidin-3-yl)-1-oxoisoindolin-5-yl)piperidine-1,4-dicarboxamide]: 10 to 1000 nM. Turning to `Cc1cccc(C)c1Nc1nn(C)c2nc(Nc3ccc4c(c3)CN(CC(=O)N3CCN(c5ccc6c(c5)CN(C5CCC(=O)NC5=O)C6=O)CC3)CC4)ncc12` (stereo not shown) [Compound 103, 3-(5-(4-(2-(7-((3-((2,6-dimethylphenyl)amino)-1-methyl-1H-pyrazolo[3,4-d]pyrimidin-6-yl)amino)-3,4-dihydroisoquinolin-2 (1H)-yl)acetyl)piperazin-1-yl)-1-oxoisoindolin-2-yl)piperidin-2,6-one], the DC50 fell in the range of 10 to 1000 nM. As for `Cc1cccc(C)c1Nc1nn(C)c2nc(Nc3ccc4c(c3)CN(C(=O)CN3CCN(c5ccc6c(c5)CN(C5CCC(=O)NC5=O)C6=O)CC3)CC4)ncc12` (stereo not shown) [Compound 104, 3-(5-(4-(2-(7-((3-((2,6-Dimethylphenyl)amino)-1-methyl-1H-pyrazolo[3,4-d]pyrimidin-6-yl)amino)-3,4-dihydroisoquinolin-2 (1H)-yl)-2-oxoethyl)piperazin-1-yl)-1-oxoisoindolin-2-yl)piperidin-2,6-one], the DC50 was in the range of 0.1 to 10 nM. Next, `Cc1cccc(C)c1Nc1nn(C)c2nc(Nc3ccc4c(c3)CN(C(=O)COc3ccc5c(c3)CN(C3CCC(=O)NC3=O)C5=O)CC4)ncc12` (stereo not shown) [Compound 105, 3-(5-(2-(7-((3-((2,6-Dimethylphenyl)amino)-1-methyl-1H-pyrazolo[3,4-d]pyrimidin-6-yl)amino)-3,4-dihydroisoquinolin-2 (1H)-yl)-2-oxoethoxy)-1-oxoisoindolin-2-yl)piperidin-2,6-one]: 0.1 to 10 nM. Turning to `Cc1cccc(C)c1Nc1nn(C)c2nc(Nc3ccc4c(c3)CN(CC(=O)N3CCC(Oc5ccc6c(c5)CN(C5CCC(=O)NC5=O)C6=O)CC3)CC4)ncc12` (stereo not shown) [Compound 106, 3-(5-((1-(2-(7-((3-((2,6-dimethylphenyl)amino)-1-methyl-1H-pyrazolo[3,4-d]pyrimidin-6-yl)amino)-3,4-dihydroisoquinolin-2 (1H)-yl)acetyl)piperidin-4-yl)oxy)-1-oxoisoindolin-2-yl)piperidin-2,6-one], the DC50 was 10 to 1000 nM. With `Cc1cccc(C)c1Nc1nn(C)c2nc(Nc3ccc4c(c3)CN(CC3CCN(c5ccc6c(c5)C(=O)N(C5CCC(=O)N(COC(=O)C(C)(C)C)C5=O)C6=O)CC3)CC4)ncc12` (stereo not shown) [Compound 107, (3-(5-(4-((7-((3-((2,6-dimethylphenyl)amino)-1-methyl-1H-pyrazolo[3,4-d]pyrimidin-6-yl)amino)-3,4-dihydroisoquinolin-2 (1H)-yl)methyl)piperidin-1-yl)-1,3-dioxoisoindolin-2-yl)-2,6-dioxopiperidin-1-yl)methyl pivalate], the DC50 fell in the range of 0.1 to 10 nM. In the case of `Cc1cccc(C)c1Nc1nn(C)c2nc(Nc3ccc4c(c3)CN(CC(=O)Nc3ccc5c(c3)CN(C3CCC(=O)NC3=O)C5=O)CC4)ncc12` (stereo not shown) [Compound 108, 2-(7-((3-((2,6-Dimethylphenyl)amino)-1-methyl-1H-pyrazolo[3,4-d]pyrimidin-6-yl)amino)-3,4-dihydroisoquinolin-2 (1H)-yl)-N-(2-(2,6-dioxopiperidin-3-yl)-1-oxoisoindolin-5-yl)acetamide] it was 0.1 to 10 nM.

On to `Cc1cccc(C)c1Nc1nn(C)c2nc(Nc3ccc4c(c3)CCN(CC3CCN(c5ccc6c(c5)C(=O)N(C5CCC(=O)NC5=O)C6=O)CC3)C4)ncc12` (stereo not shown) [Compound 109, 5-(4-((6-((3-((2,6-Dimethylphenyl)amino)-1-methyl-1H-pyrazolo[3,4-d]pyrimidin-6-yl)amino)-3,4-dihydroisoquinolin-2 (1H)-yl)methyl)piperidin-1-yl)-2-(2,6-dioxopiperidin-3-yl)isoindoline-1,3-dione], for which the DC50 fell in the range of 10 to 1000 nM. As to `Cc1cccc(C)c1Nc1nn(C)c2nc(Nc3ccc4c(c3)CCN(CC3CCN(C(=O)CNc5ccc6c(c5)C(=O)N(C5CCC(=O)NC5=O)C6=O)CC3)C4)ncc12` (stereo not shown) [Compound 110, 5-((2-(4-((6-((3-((2,6-Dimethylphenyl)amino)-1-methyl-1H-pyrazolo[3,4-d]pyrimidin-6-yl)amino)-3,4-dihydroisoquinolin-2 (1H)-yl)methyl)piperidin-1-yl)-2-oxoethyl)amino)-2-(2,6-dioxopiperidin-3-yl)isoindoline-1,3-dione], the DC50 was 0.1 to 10 nM.

For `COc1ccc(C(=O)N2CCC(CC(=O)N3CCc4cc(Nc5ncc6c(Nc7c(C)cccc7C)nn(C)c6n5)ccc4C3)CC2)cc1N1CCC(=O)NC1=O` [Compound 111, 1-(5-(4-(2-(6-((3-((2,6-Dimethylphenyl)amino)-1-methyl-1H-pyrazolo[3,4-d]pyrimidin-6-yl)amino)-3,4-dihydroisoquinolin-2 (1H)-yl)-2-oxoethyl)piperidine-1-carbonyl)-2-methoxyphenyl)dihydropyrimidine-2,4 (1H,3H)-dione], the DC50 lay within 10 to 1000 nM.

For the molecule `COc1ccc(C(=O)N2CCC(CC(=O)N3CCc4ccc(Nc5ncc6c(Nc7c(C)cccc7C)nn(C)c6n5)cc4C3)CC2)cc1N1CCC(=O)NC1=O` [Compound 112, 1-(5-(4-(2-(7-((3-((2,6-Dimethylphenyl)amino)-1-methyl-1H-pyrazolo[3,4-d]pyrimidin-6-yl)amino)-3,4-dihydroisoquinolin-2 (1H)-yl)-2-oxoethyl)piperidine-1-carbonyl)-2-methoxyphenyl)dihydropyrimidine-2,4 (1H,3H)-dione], the DC50 was 1000 to 10000 nM. In the case of `Cc1cccc(C)c1Nc1nn(C)c2nc(Nc3ccc4c(c3)CN(CC(=O)N3CCC(Oc5ccc6c(c5)C(=O)N(C5CCC(=O)NC5=O)C6)CC3)CC4)ncc12` (stereo not shown) [Compound 116, 3-(6-((1-(2-(7-((3-((2,6-dimethylphenyl)amino)-1-methyl-1H-pyrazolo[3,4-d]pyrimidin-6-yl)amino)-3,4-dihydroisoquinolin-2 (1H)-yl)acetyl)piperidin-4-yl)oxy)-1-oxoisoindolin-2-yl)piperidin-2,6-one] it was 1000 to 10000 nM; in that of `Cc1cccc(C)c1Nc1nn(C)c2nc(Nc3ccc4c(c3)CN(C(=O)CN3CCC(Oc5ccc6c(c5)C(=O)N(C5CCC(=O)NC5=O)C6)CC3)CC4)ncc12` (stereo not shown) [Compound 117, 3-(6-((1-(2-(7-((3-((2,6-dimethylphenyl)amino)-1-methyl-TH-pyrazolo[3,4-d]pyrimidin-6-yl)amino)-3,4-dihydroisoquinolin-2 (1H)-yl)-2-oxoethyl)piperidin-4-yl)oxy)-1-oxoisoindolin-2-yl)piperidin-2,6-one], 1000 to 10000 nM; in that of `COc1ccc(Nc2nn(C)c3nc(Nc4ccc5c(c4)CN(CC4CCN(c6ccc7c(c6)C(=O)N(C6CCC(=O)NC6=O)C7=O)CC4)CC5)ncc23)c(C)c1` (stereo not shown) [Compound 118, 2-(2,6-Dioxopiperidin-3-yl)-5-(4-((7-((3-((4-methoxy-2-methylphenyl)amino)-1-methyl-1H-pyrazolo[3,4-d]pyrimidin-6-yl)amino)-3,4-dihydroisoquinolin-2 (1H)-yl)methyl)piperidin-1-yl)isoindoline-1,3-dione], 1000 to 10000 nM. Next, `Cc1cc(F)ccc1Nc1nn(C)c2nc(Nc3ccc4c(c3)CN(CC3CCN(c5ccc6c(c5)C(=O)N(C5CCC(=O)NC5=O)C6=O)CC3)CC4)ncc12` (stereo not shown) [Compound 121, 2-(2,6-Dioxopiperidin-3-yl)-5-(4-((7-((3-((4-fluoro-2-methylphenyl)amino)-1-methyl-1H-pyrazolo[3,4-d]pyrimidin-6-yl)amino)-3,4-dihydroisoquinolin-2 (1H)-yl)methyl)piperidin-1-yl)isoindoline-1,3-dione]: 10 to 1000 nM; `Cc1cc(NC(=O)c2cccc(C(F)(F)F)c2)ccc1Nc1nn(C)c2nc(Nc3ccc4c(c3)CN(CC3CCN(c5ccc6c(c5)C(=O)N(C5CCC(=O)NC5=O)C6=O)CC3)CC4)ncc12` (stereo not shown) [Compound 122, N-(4-((6-((2-((1-(2-(2,6-Dioxopiperidin-3-yl)-1,3-dioxoisoindolin-5-yl)piperidin-4-yl)methyl)-1,2,3,4-tetrahydroisoquinolin-7-yl)amino)-1-methyl-1H-pyrazolo[3,4-d]pyrimidin-3-yl)amino)-3-methylphenyl)-3-(trifluoromethyl)benzamide]: 10 to 1000 nM; `Cc1cccc(C)c1Nc1nn(C)c2nc(Nc3ccc4c(c3)CN(CCNc3ccc5c(c3)C(=O)N(C3CCC(=O)NC3=O)C5=O)CC4)ncc12` (stereo not shown) [Compound 123, 5-((2-(7-((3-((2,6-Dimethylphenyl)amino)-1-methyl-1H-pyrazolo[3,4-d]pyrimidin-6-yl)amino)-3,4-dihydroisoquinolin-2 (1H)-yl)ethyl)amino)-2-(2,6-dioxopiperidin-3-yl)isoindoline-1,3-dione]: 10 to 1000 nM.

By DC50 is commonly meant the concentration at which degradation of the target reaches its halfway point.
